Reference: patent publication US8552022B2, “Substituted cyclopropyl compounds, compositions containing such compounds and methods of treatment” (Merck Sharp & Dohme Corp., priority 2009, dated 2013)

Target: T1, GPR119 (UniProt Q8TDV5, S309L, species not given)
T1 sequence (Q8TDV5 1-335 S309L): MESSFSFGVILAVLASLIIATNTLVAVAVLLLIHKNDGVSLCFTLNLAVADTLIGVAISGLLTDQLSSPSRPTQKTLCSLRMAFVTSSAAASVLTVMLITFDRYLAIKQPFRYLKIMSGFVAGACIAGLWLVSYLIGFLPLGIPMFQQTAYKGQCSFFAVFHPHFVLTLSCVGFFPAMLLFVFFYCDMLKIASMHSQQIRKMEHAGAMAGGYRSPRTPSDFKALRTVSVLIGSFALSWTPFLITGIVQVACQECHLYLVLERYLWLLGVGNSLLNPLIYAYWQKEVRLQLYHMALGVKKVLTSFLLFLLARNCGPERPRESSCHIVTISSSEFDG
Assay: GPR119 signaling, cyclic AMP (cAMP) HTRF assay
Assay type: cell-based, human (S309L variant) or murine
Conditions: CHO cells with Gα15 and murine GPR119 or HEK293 Flp-In cells with human GPR119 S309L, read-out: EC50 (agonist activation of GPR119, cAMP)
From the text: The title compound was synthesized using 2-{2-[1-(5-chloropyrimidin-2-yl)piperidin-4-yl]cyclopropyl}ethyl 4-methylbenzenesulfonate from step 1 of this example by a general procedure analogous that described in Example 59. LRMS calc: 424.9; obs: 425.01 (M+1). Measurement of GPR119Signaling Using a Cyclic AMP (cAMP) Homogenous Time Resolved Fluorescence (HTRF) Assay
Chinese hamster ovary (CHO) cell lines stably transfected with the permissive guanine nucleotide binding protein alpha 15 (Gα15) and murine GPR119 were maintained in DMEM media containing FBS, penicillin-streptomycin, puromycin, and G418 (geneticin). Alternatively, human embryonic kidney (HEK)293 Flp-In cells (Invitrogen, Carlsbad, Calif.) were stably transfected with a human SNP variant (S309L) of GPR119 and maintained in DMEM media containing FBS, penicillin-streptomycin, and hygromycin. Agonist activation of the GPR119 receptor was measured in receptor transfected cells described above, treated with compounds of this invention, using a commercial homogenous time resolved fluorescence (HTRF) kit for measurement of cAMP (CisBio, Bedford, Mass.). The assay was performed in 96-well half-volume plates (murine) or 384-well plates (human) following the manufacturers instructions. Briefly, suspended cells were incubated with a dose titration of test compound at room temperature for 60 min, lysed, and incubated with HTRF reagents for an additional 60 min. The plate was read using an Envision multilabel reader (Perkin Elmer) adjusted to read time resolved fluorescence and the cAMP concentrations were extrapolated from a cAMP calibration curve. […] The concentration of test compound required to stimulate a half-maximal response (EC50), and efficacy as compared to an internal agonist control, was determined from a sigmoidal 4-parameter curve fit of the resulting plot of normalized activity versus compound concentration.

| Compound | EC50 [nM] |
| --- | --- |
| Cc1cc(NCC[C@@H]2C[C@@H]2C2CCN(c3ncc(Cl)cn3)CC2)cc(C#N)n1 [Ex 22, 4-[(2-{(1S,2S)-2-[1-(5-chloropyrimidin-2-yl)piperidin-4-yl]cyclopropyl}ethyl)amino]-6-methylpyridine-2-carbonitrile] | < 10 |
| Clc1cnc(N2CCC([C@H]3C[C@H]3CCNc3ccc(-n4nccn4)nc3)CC2)nc1 [Ex 19, N-(2-{(1S,2S)-2-[1-(5-chloropyrimidin-2-yl)piperidin-4-yl]cyclopropyl}ethyl)-6-(2H-1,2,3-triazol-2-yl)pyridin-3-amine] | 10 to 50 |
| CC(=O)Nc1cnc(NCC[C@@H]2C[C@@H]2C2CCN(c3ncc(Cl)cn3)CC2)cc1C [Ex 34, N-{6-[(2-{(1S,2S)-2-[1-(5-chloropyrimidin-2-yl)piperidin-4-yl]cyclopropyl}ethyl)amino]-4-methylpyridin-3-yl}acetamide] | 10 to 50 |
| CC(=O)Nc1ccc(NCC[C@@H]2C[C@@H]2C2CCN(c3ncc(Cl)cn3)CC2)nc1 [Ex 35, N-{6-[(2-{(1S,2S)-2-[1-(5-chloropyrimidin-2-yl)piperidin-4-yl]cyclopropyl}ethyl)amino]pyridin-3-yl}acetamide] | 10 to 50 |
